ChEMBL document CHEMBL2163216, “Design of fully synthetic, self-adjuvanting vaccine incorporating the tumor-associated carbohydrate Tn antigen and lipoamino acid-based Toll-like receptor 2 ligand” (J Med Chem, 2012)
Calls of active or inactive are those of the source. The rule behind the calls is not given here. Where a SMILES comes first, the peptide text is derived from it. [ ]: non-standard residue; d: D form. The star is where a group is joined. ξ: configuration not given here. αGalNAc = CC(=O)N[C@@H]1[C@@H](O)[C@@H](O)[C@@H](CO)O[C@@H]1*; ξGly(tetradecyl) = CCCCCCCCCCCCCCC(N)C(=O)O

Experiments:
Mus musculus [1] = experiment: Immunostimulatory activity in BALB/c (H-2d) mouse assessed as increase in IgG level at 30 ug, sc per week for 5 weeks measured on day 9 after last immunization by ELISA relative to untreated-control; assay type: functional, organism-based
Mus musculus [2] = experiment: Immunostimulatory activity in BALB/c (H-2d) mouse assessed as increase in IgG level at 30 ug, sc per week for 5 weeks coadministered with complete freund's adjuvant measured on day 9 after last immunization by ELISA; assay type: functional, organism-based
[3] = molecular target: Toll-like receptor 2 (Homo sapiens) (UniProt O60603); experiment: Activation of human TLR2 expressed in HEK293 cells at 100 to 300 nM after 4 hrs by luciferase reporter gene assay; assay type: cell-based
Toll-like receptor 2 (Homo sapiens), sequence (O60603 whole entry): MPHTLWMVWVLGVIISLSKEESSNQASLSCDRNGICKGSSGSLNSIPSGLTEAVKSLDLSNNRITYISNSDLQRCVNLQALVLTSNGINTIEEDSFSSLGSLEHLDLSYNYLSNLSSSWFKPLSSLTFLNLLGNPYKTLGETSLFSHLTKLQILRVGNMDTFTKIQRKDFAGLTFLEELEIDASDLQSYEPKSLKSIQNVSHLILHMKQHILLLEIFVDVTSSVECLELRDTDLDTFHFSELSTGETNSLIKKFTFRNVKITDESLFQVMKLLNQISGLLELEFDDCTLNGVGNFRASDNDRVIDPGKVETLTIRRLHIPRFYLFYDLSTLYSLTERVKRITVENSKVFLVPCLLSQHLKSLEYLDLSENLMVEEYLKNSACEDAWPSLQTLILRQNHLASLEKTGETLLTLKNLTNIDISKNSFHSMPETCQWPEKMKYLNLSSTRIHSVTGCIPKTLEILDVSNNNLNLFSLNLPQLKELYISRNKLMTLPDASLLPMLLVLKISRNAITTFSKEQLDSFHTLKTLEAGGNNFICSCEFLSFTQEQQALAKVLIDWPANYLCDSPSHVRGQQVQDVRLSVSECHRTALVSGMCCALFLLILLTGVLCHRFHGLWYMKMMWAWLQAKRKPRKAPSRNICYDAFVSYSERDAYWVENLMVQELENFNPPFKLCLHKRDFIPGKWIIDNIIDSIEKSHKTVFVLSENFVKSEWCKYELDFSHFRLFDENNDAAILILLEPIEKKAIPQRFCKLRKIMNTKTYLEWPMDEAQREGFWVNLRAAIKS

For `CCCCCCCCCCCCCCC(NC(=O)C(CCCCCCCCCCCCCC)NC(=O)[C@H](CO)NC(=O)[C@H](CO)NC(=O)[C@H](CCCCN)NC(=O)[C@H](CO[C@H]1O[C@H](CO)[C@H](O)[C@H](O)[C@H]1NC(C)=O)NC(=O)[C@H](CO[C@H]1O[C@H](CO)[C@H](O)[C@H](O)[C@H]1NC(C)=O)NC(=O)[C@H](CO[C@H]1O[C@H](CO)[C@H](O)[C@H](O)[C@H]1NC(C)=O)NC(=O)[C@@H](NC(=O)[C@H](CC(=O)O)NC(=O)[C@H](CCCCN)NC(=O)[C@H](Cc1ccc(O)cc1)NC(=O)[C@@H](NC(=O)[C@@H](NC(=O)[C@H](CCCCN)NC(=O)[C@H](Cc1c[nH]c2ccccc12)NC(=O)[C@@H](NC(=O)[C@H](C)NC(=O)[C@H](Cc1ccccc1)NC(=O)[C@H](CC(C)C)NC(=O)[C@H](CCCCN)NC(C)=O)C(C)C)[C@@H](C)CC)[C@@H](C)O)[C@@H](C)O)C(N)=O` (stereo partly specified), which Activity (Mus musculus [1]) is on record?
The Activity was “Active”.

What about the Activity (Mus musculus [2]) of the same compound?
Its Activity is “Active”.

For `CCCCCCCCCCCCCCC(NC(=O)C(CCCCCCCCCCCCCC)NC(=O)[C@H](CO)NC(=O)[C@H](CO)NC(=O)[C@H](CCCCN)NC(=O)[C@H](CO[C@H]1O[C@H](CO)[C@H](O)[C@H](O)[C@H]1NC(C)=O)NC(=O)[C@H](CO[C@H]1O[C@H](CO)[C@H](O)[C@H](O)[C@H]1NC(C)=O)NC(=O)[C@H](CO[C@H]1O[C@H](CO)[C@H](O)[C@H](O)[C@H]1NC(C)=O)NC(=O)[C@@H](NC(=O)[C@H](CC(=O)O)NC(=O)[C@H](CCCCN)NC(=O)[C@H](Cc1ccc(O)cc1)NC(=O)[C@@H](NC(=O)[C@@H](NC(=O)[C@H](CCCCN)NC(=O)[C@H](Cc1c[nH]c2ccccc12)NC(=O)[C@@H](NC(=O)[C@H](C)NC(=O)[C@H](Cc1ccccc1)NC(=O)[C@H](CC(C)C)NC(=O)[C@H](CCCCN)NC(=O)[C@H](CC(C)C)NC(=O)[C@H](CCCCN)NC(=O)[C@H](CCC(=O)O)NC(=O)[C@H](Cc1ccccc1)NC(=O)[C@H](CC(N)=O)NC(=O)[C@@H](NC(=O)[C@@H](NC(=O)[C@H](CO)NC(C)=O)[C@@H](C)CC)[C@@H](C)CC)C(C)C)[C@@H](C)CC)[C@@H](C)O)[C@@H](C)O)C(N)=O` (stereo partly specified), which Activity (Mus musculus [1]) is on record?
Its Activity is “inactive”.

And the Activity (Mus musculus [2])?
The Activity was “Active”.

With `CCCCCCCCCCCCCCC(NC(=O)C(CCCCCCCCCCCCCC)NC(=O)[C@H](CO)NC(=O)[C@H](CO)NC(=O)[C@H](CCCCN)NC(=O)[C@H](CO[C@H]1O[C@H](CO)[C@H](O)[C@H](O)[C@H]1NC(C)=O)NC(C)=O)C(N)=O` (stereo partly specified) (Ac-S(αGalNAc)KSS[ξGly(tetradecyl)][ξGly(tetradecyl)]-NH2) as the compound, how does the Activity [3] read?
The Activity was “Active”.

Which Activity (Mus musculus [1]) does the source give for `CCCCCCCCCCCCCCC(NC(=O)C(CCCCCCCCCCCCCC)NC(=O)[C@H](CO)NC(=O)[C@H](CO)NC(=O)[C@H](CCCCN)NC(=O)[C@H](CO[C@H]1O[C@H](CO)[C@H](O)[C@H](O)[C@H]1NC(C)=O)NC(=O)[C@H](CO[C@H]1O[C@H](CO)[C@H](O)[C@H](O)[C@H]1NC(C)=O)NC(=O)[C@H](CO[C@H]1O[C@H](CO)[C@H](O)[C@H](O)[C@H]1NC(C)=O)NC(=O)[C@H](CCCCNC(=O)[C@H](CC(C)C)NC(=O)[C@H](CCCCN)NC(=O)[C@H](CCC(=O)O)NC(=O)[C@H](Cc1ccccc1)NC(=O)[C@H](CC(N)=O)NC(=O)[C@@H](NC(=O)[C@@H](NC(=O)[C@H](CO)NC(C)=O)[C@@H](C)CC)[C@@H](C)CC)NC(=O)[C@@H](NC(=O)[C@H](CC(=O)O)NC(=O)[C@H](CCCCN)NC(=O)[C@H](Cc1ccc(O)cc1)NC(=O)[C@@H](NC(=O)[C@@H](NC(=O)[C@H](CCCCN)NC(=O)[C@H](Cc1c[nH]c2ccccc12)NC(=O)[C@@H](NC(=O)[C@H](C)NC(=O)[C@H](Cc1ccccc1)NC(=O)[C@H](CC(C)C)NC(=O)[C@H](CCCCN)NC(C)=O)C(C)C)[C@@H](C)CC)[C@@H](C)O)[C@@H](C)O)C(N)=O` (stereo partly specified) here?
Its Activity is “inactive”.
